# Source: PMC10412597, “Small molecule branched-chain ketoacid dehydrogenase kinase (BDK) inhibitors with opposing effects on BDK protein levels” (Nature Communications, 2023)
# Assays:
# Parameters in all cases: Invitrogen kinase panel, per cent inhibition of kinase activity
# [1] = biological target: AKT2 (Homo sapiens, UniProt P31751); details: 10 µM, inhibitor
# How it was run: (§1)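 Activity was measured in a kinase selectivity panel. The data come from off-target testing of the same BDK inhibitors.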
# [2] = biological target: PI4KA (Homo sapiens, UniProt P42356); details: inhibitor
# Method: (§2) To discover a potent and selective BDK inhibitor, a subset of the Pfizer compound collection was screened. […] Off target activity was assessed in both CEREP and kinase panels (Supplementary Tables 2, 3).
# [3] = biological target: T1, Rsk2 (Homo sapiens, UniProt P51812); details: 10 µM, inhibitor
# T1 construct: gene RPS6KA3
# How it was run: as §1
# [4] = biological target: T2, JNK1 (Homo sapiens, UniProt P45983); details: 10 µM, inhibitor
# T2 construct: gene MAPK8
# T2 sequence (P45983 whole entry): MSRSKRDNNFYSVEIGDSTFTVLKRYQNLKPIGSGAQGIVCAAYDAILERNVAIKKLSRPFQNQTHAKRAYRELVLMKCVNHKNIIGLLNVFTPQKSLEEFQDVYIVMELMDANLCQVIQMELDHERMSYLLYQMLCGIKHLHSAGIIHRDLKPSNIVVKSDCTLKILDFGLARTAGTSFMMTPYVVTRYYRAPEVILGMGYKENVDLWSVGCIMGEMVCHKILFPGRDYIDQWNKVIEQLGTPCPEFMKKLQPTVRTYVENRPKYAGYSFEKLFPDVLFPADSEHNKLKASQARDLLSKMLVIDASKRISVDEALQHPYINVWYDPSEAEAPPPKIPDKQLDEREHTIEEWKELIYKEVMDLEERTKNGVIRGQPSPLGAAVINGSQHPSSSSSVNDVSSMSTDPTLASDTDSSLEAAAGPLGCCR
# Method: as §2
# [5] = biological target: PIK3CB (Homo sapiens, UniProt P42338); details: 10 µM, inhibitor
# How it was run: as §1
# [6] = biological target: CSNK2A2 (Homo sapiens, UniProt P19784); details: 10 µM, inhibitor
# Chain of CSNK2A2 (P19784 whole entry): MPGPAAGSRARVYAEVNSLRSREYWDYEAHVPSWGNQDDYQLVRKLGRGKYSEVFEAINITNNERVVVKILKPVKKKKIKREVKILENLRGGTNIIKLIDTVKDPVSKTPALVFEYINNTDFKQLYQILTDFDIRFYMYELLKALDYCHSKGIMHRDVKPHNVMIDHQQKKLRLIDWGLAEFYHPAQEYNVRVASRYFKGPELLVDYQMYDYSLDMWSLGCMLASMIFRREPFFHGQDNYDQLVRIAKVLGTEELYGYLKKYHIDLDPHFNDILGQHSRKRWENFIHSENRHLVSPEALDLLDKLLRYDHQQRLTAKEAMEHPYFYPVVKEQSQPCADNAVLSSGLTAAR
# Method: as §2
# [7] = biological target: MAPK1 (Homo sapiens, UniProt P28482); details: 10 µM, inhibitor
# Chain of MAPK1 (P28482 whole entry): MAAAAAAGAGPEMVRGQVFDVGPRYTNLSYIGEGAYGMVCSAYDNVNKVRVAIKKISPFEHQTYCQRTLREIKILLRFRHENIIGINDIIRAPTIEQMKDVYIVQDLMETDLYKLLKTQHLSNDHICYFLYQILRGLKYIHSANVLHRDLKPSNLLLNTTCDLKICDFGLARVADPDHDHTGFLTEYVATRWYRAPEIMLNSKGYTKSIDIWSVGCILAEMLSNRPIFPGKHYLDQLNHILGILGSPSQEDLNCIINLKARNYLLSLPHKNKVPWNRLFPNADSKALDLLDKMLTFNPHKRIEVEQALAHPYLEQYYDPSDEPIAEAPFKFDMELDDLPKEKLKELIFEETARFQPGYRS
# Method: as §2
# [8] = biological target: MARK1 (Homo sapiens, UniProt Q9P0L2); details: 10 µM, inhibitor
# Chain of MARK1 (Q9P0L2 whole entry): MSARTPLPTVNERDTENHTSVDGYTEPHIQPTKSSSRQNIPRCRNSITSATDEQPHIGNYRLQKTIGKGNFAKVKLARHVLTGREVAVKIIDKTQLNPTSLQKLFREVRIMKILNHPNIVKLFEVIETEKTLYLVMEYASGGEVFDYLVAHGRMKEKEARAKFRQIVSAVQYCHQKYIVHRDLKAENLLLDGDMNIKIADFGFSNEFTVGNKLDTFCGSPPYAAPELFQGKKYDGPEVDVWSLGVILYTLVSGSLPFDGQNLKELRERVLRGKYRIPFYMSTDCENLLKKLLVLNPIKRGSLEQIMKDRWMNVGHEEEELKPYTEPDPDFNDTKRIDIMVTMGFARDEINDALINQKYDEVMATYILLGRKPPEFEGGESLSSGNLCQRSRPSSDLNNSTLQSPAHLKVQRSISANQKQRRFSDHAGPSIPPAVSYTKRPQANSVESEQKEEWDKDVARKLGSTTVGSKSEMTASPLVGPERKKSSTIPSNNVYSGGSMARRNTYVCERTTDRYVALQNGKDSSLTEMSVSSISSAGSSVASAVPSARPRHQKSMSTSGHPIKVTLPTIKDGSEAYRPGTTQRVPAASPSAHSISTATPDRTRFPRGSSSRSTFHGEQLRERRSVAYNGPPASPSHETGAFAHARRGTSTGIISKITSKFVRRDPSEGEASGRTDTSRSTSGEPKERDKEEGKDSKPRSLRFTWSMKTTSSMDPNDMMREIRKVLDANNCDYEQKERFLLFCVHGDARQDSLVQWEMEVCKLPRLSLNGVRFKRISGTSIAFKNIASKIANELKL
# Method: as §2
# [9] = biological target: T3, Misshapen-like Kinase 1 (Homo sapiens, UniProt Q8N4C8); details: 10 µM, inhibitor
# T3 construct: gene MINK1
# How it was run: as §1
# [10] = biological target: HCK (Homo sapiens, UniProt P08631); details: 10 µM, inhibitor
# How it was run: as §1
# [11] = biological target: MET (Homo sapiens, UniProt P08581); details: 10 µM, inhibitor
# Chain of MET (P08581 whole entry): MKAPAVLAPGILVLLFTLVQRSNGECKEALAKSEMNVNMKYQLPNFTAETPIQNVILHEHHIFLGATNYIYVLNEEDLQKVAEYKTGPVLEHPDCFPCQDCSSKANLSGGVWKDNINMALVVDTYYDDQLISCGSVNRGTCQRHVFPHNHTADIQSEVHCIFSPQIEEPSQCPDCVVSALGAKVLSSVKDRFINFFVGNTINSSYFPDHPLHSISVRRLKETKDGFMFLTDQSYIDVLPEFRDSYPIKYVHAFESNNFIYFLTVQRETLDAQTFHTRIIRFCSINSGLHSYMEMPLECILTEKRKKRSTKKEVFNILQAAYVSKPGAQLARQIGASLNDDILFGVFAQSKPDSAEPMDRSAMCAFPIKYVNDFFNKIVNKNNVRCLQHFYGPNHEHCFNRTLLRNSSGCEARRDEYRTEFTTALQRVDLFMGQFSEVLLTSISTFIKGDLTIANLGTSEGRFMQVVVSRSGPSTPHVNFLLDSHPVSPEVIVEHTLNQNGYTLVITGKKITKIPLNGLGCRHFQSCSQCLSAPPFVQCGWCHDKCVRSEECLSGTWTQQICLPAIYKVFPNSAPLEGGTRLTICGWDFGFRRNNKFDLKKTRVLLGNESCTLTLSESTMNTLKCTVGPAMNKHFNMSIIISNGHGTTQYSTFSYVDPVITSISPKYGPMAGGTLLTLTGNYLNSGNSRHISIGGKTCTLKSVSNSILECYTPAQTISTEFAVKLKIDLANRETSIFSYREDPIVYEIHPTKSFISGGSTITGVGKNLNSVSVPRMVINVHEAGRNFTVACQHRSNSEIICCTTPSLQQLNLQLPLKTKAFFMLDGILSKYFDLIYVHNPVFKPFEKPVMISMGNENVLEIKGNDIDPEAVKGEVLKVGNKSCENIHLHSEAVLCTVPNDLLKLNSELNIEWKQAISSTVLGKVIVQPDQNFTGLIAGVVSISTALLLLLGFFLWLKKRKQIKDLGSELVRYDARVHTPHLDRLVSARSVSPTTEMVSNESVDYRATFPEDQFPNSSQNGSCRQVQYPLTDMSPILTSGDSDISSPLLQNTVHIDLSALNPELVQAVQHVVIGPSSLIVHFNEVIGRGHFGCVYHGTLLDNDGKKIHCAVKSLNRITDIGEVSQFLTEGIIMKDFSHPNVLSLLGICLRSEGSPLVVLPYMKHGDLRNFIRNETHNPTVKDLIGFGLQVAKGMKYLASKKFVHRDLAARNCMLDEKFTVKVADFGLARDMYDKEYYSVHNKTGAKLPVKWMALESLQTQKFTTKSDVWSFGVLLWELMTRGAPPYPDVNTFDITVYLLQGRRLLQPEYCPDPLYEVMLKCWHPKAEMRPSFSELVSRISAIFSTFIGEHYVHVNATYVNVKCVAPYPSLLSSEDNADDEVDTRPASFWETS
# Method: as §2
# [12] = biological target: FGFR1 (Homo sapiens, UniProt P11362); details: 10 µM, inhibitor
# Chain of FGFR1 (P11362 whole entry): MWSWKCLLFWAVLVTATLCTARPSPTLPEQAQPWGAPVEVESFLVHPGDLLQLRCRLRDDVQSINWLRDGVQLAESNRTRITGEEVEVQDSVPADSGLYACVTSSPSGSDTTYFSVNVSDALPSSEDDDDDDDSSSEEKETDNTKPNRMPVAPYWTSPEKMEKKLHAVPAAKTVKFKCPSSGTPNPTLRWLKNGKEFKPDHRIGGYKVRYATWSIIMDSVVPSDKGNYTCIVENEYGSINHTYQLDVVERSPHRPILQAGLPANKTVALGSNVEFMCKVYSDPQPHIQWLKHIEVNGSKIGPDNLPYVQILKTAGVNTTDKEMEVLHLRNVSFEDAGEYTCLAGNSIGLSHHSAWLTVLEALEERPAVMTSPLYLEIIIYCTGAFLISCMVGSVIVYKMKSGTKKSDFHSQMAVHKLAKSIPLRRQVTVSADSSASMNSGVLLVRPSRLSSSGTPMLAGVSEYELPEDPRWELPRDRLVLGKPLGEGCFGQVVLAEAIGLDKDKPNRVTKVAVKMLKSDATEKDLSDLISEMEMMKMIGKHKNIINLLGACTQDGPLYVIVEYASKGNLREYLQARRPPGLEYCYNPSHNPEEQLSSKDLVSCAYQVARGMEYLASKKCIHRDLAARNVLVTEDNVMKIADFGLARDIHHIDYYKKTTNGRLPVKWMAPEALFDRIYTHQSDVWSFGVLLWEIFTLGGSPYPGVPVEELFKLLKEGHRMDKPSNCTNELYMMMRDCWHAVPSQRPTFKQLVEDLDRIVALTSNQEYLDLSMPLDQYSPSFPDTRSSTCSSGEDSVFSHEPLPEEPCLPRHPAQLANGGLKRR
# Method: as §2
# [13] = biological target: AURKB (Homo sapiens, UniProt Q96GD4); details: 10 µM, inhibitor
# How it was run: as §1
# [14] = biological target: PRKACA (Homo sapiens, UniProt P17612); details: 10 µM, inhibitor
# Method: as §2
# [15] = biological target: MAPKAPK2 (Homo sapiens, UniProt P49137); details: 10 µM, inhibitor
# Chain of MAPKAPK2 (P49137 whole entry): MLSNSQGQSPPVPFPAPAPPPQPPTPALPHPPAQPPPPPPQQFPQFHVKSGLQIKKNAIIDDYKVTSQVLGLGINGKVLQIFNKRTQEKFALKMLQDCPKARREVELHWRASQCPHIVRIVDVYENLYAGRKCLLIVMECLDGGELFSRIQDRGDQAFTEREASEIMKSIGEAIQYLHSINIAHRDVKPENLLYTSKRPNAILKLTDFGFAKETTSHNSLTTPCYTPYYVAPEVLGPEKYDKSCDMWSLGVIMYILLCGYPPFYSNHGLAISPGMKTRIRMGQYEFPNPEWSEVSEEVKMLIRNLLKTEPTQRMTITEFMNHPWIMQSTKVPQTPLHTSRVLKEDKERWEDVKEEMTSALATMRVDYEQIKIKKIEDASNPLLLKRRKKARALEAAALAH
# Method: as §2
# [16] = biological target: T4, STK3 (Homo sapiens, UniProt Q13188); details: 10 µM, inhibitor
# T4 sequence (Q13188 1-491): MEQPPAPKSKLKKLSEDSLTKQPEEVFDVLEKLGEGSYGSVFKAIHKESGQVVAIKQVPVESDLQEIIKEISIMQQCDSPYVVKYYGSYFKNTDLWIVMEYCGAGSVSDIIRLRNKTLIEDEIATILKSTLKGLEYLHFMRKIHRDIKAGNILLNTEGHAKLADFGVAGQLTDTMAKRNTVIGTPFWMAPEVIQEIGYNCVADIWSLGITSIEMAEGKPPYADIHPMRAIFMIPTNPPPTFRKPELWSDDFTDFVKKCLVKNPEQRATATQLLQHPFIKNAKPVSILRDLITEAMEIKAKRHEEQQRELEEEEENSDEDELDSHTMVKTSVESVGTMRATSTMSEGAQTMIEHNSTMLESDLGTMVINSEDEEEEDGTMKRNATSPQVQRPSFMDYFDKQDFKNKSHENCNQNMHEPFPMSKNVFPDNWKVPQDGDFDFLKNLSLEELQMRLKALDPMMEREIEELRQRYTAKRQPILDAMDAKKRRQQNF
# Method: as §2
# [17] = biological target: GSK3B (Homo sapiens, UniProt P49841); details: 10 µM, inhibitor
# Chain of GSK3B (P49841 whole entry): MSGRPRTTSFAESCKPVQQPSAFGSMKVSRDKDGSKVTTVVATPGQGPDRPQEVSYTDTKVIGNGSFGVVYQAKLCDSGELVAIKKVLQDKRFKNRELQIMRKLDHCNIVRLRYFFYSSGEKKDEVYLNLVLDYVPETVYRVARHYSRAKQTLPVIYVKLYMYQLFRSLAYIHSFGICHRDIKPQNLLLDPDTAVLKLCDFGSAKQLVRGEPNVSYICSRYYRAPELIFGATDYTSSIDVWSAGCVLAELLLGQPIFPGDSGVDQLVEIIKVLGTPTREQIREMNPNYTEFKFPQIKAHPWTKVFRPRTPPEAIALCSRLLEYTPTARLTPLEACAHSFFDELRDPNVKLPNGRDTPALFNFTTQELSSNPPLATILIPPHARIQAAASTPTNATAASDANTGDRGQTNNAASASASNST
# Method: as §2
# [18] = biological target: MYLK2 (Homo sapiens, UniProt Q9H1R3); details: 10 µM, inhibitor
# Method: as §2
# [19] = biological target: T5, SGK1 (Homo sapiens, UniProt O00141); details: 10 µM, inhibitor
# T5 sequence (O00141 1-431): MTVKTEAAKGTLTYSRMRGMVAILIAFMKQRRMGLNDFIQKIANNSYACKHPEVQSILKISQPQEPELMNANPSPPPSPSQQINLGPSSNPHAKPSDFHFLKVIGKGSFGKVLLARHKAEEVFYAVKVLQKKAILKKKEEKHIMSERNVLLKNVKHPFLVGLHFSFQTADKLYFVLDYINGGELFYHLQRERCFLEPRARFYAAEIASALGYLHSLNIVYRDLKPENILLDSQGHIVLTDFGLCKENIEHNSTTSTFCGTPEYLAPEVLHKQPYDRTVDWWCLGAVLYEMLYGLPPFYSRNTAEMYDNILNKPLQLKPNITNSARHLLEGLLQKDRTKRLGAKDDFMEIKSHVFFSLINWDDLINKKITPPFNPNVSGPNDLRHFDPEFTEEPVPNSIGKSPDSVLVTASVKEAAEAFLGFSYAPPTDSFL
# Method: as §2
structure (smiles),measurement,setting,value
"O=C(O)c1sc2cc(F)sc2c1Cl [PF-07208254, 3-chloro-5-fluorothieno[3,2-b]thiophene-2-carboxylic acid]",ATP = Km % Inhibition PF-07208254,[1],0.2%
same,ATP = 10 uM % Inhibition PF-07208254,[2],8.2%
same,ATP = Km % Inhibition PF-07208254,[3],-0.7%
same,ATP = 100 uM % Inhibition PF-07208254,[4],-0.6%
same,ATP = Km % Inhibition PF-07208254,[5],3.1%
same,ATP = 1 mM % Inhibition PF-07208254,[6],7.3%
same,ATP = Km % Inhibition PF-07208254,[6],24.5%
same,ATP = 1 mM % Inhibition PF-07208254,[7],2.8%
same,ATP = Km % Inhibition PF-07208254,[7],9.4%
same,ATP = 1 mM % Inhibition PF-07208254,[8],8.4%
same,ATP = Km % Inhibition PF-07208254,[8],2.1%
same,ATP = Km % Inhibition PF-07208254,[9],-3.3%
same,ATP = Km % Inhibition PF-07208254,[10],9.9%
same,ATP = 1 mM % Inhibition PF-07208254,[11],-10.2%
same,ATP = Km % Inhibition PF-07208254,[11],-3.1%
same,ATP = 1 mM % Inhibition PF-07208254,[12],-0.5%
same,ATP = Km % Inhibition PF-07208254,[12],-0.5%
same,ATP = Km % Inhibition PF-07208254,[13],3.0%
same,ATP = 1 mM % Inhibition PF-07208254,[14],-2.4%
same,ATP = Km % Inhibition PF-07208254,[14],2.7%
same,ATP = 1 mM % Inhibition PF-07208254,[15],-1.5%
same,ATP = Km % Inhibition PF-07208254,[15],3.4%
same,ATP = 1 mM % Inhibition PF-07208254,[16],-2.3%
same,ATP = Km % Inhibition PF-07208254,[16],5.5%
same,ATP = 1 mM % Inhibition PF-07208254,[17],0.7%
same,ATP = Km % Inhibition PF-07208254,[17],9.7%
same,ATP = 1 mM % Inhibition PF-07208254,[18],-0.1%
same,ATP = Km % Inhibition PF-07208254,[18],-3.6%
same,ATP = 1 mM % Inhibition PF-07208254,[19],1.9%
same,ATP = Km % Inhibition PF-07208254,[19],-0.1%
"CCC1(COc2ccc(-c3csc(-c4ccccc4C(=O)O)n3)cn2)CC1 [PF-07247685, 2-(4-{6-[(1-ethylcyclopropyl)methoxy]pyridin-3-yl}-1,3-thiazol-2-yl)benzoic acid]",ATP = Km % Inhibition PF-07247685,[1],5.5%
same,ATP = 10 uM % Inhibition PF-07247685,[2],-3.1%
same,ATP = Km % Inhibition PF-07247685,[3],-1.6%
same,ATP = 100 uM % Inhibition PF-07247685,[4],2.1%
same,ATP = Km % Inhibition PF-07247685,[5],-3.5%
same,ATP = 1 mM % Inhibition PF-07247685,[6],1.9%
same,ATP = Km % Inhibition PF-07247685,[6],7.5%
same,ATP = 1 mM % Inhibition PF-07247685,[7],2.4%
same,ATP = Km % Inhibition PF-07247685,[7],7.0%
same,ATP = 1 mM % Inhibition PF-07247685,[8],7.5%
same,ATP = Km % Inhibition PF-07247685,[8],4.3%
same,ATP = Km % Inhibition PF-07247685,[9],21.9%
same,ATP = Km % Inhibition PF-07247685,[10],4.5%
same,ATP = 1 mM % Inhibition PF-07247685,[11],-2.2%
same,ATP = Km % Inhibition PF-07247685,[11],-0.3%
same,ATP = 1 mM % Inhibition PF-07247685,[12],2.1%
same,ATP = Km % Inhibition PF-07247685,[12],8.8%
same,ATP = Km % Inhibition PF-07247685,[13],17.3%
same,ATP = 1 mM % Inhibition PF-07247685,[14],0.3%
same,ATP = Km % Inhibition PF-07247685,[14],2.3%
same,ATP = 1 mM % Inhibition PF-07247685,[15],3.3%
same,ATP = Km % Inhibition PF-07247685,[15],2.2%
same,ATP = 1 mM % Inhibition PF-07247685,[16],-7.6%
same,ATP = Km % Inhibition PF-07247685,[16],-1.8%
same,ATP = 1 mM % Inhibition PF-07247685,[17],3.7%
same,ATP = Km % Inhibition PF-07247685,[17],11.0%
same,ATP = 1 mM % Inhibition PF-07247685,[18],1.7%
same,ATP = Km % Inhibition PF-07247685,[18],1.4%
same,ATP = 1 mM % Inhibition PF-07247685,[19],-5.1%
same,ATP = Km % Inhibition PF-07247685,[19],0.7%
